In patent US7745646B2, “Bicyclic heteroaryl inhibitors of PDE4” (Kalypsys, Inc., priority 2006, dated 2010):

biological target: T1, PDE4B (Homo sapiens, UniProt Q07343); experiment: Novel coupled PDE/AK bioluminescent assay, PDE4B inhibition; type: biochemical; details: PDE4B catalytic domain
T1 construct: hex-histidine (His6) (N); made in house
T1 sequence (Q07343 330-659 limits assumed, species assumed): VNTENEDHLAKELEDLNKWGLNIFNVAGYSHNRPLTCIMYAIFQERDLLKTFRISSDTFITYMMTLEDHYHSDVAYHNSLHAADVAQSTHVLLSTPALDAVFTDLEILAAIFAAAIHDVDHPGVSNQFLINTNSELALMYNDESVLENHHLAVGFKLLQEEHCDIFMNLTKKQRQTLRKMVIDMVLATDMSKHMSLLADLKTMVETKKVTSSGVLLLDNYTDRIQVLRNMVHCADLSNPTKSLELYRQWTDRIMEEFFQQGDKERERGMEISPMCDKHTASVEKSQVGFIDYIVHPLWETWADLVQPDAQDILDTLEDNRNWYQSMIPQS
Text: We developed a novel coupled PDE/AK bioluminescent high-throughput assay to measure the activity of phosphodiesterases. In the PDE/AK assay, the AMP produced from the hydrolysis of cAMP by phosphodiesterase is converted to adenosine diphosphate (ADP) by the phosphotransferase activity of adenylate kinase (also known as ADK or myokinase). Adenylate kinase will catalyze the conversion of 1 mole of AMP and 1 mole of ATP into 2 moles of ADP. Thus the conversion of AMP to ADP will result in the subsequent loss of ATP. The decrease in ATP concentration can be monitored as light output using luciferase in a reaction that requires ATP to produce light. The PDE/AK assay uses luciferase, which catalyzes the production of light from ATP present in the reaction mix. The amount of emitted light is inversely proportional to the level of AMP present in the reaction. Test compounds are incubated with the phosphodiesterases and phosphodiesterase inhibitors will decrease the rate of cAMP hydrolysis and decrease the subsequent production of AMP.
A novel coupled PDE/AK assay was utilized to measure the inhibitory activity of compounds on PDE isoforms. The catalytic domain of PDE4B was fused to an amino-terminus hex-histidine affinity tag and purified. PDE4B enzyme was incubated with compounds for 10 minutes. Cyclic AMP substrate, ATP and adenylate kinase were then added to the PDE enzyme mix and incubated for 45 minutes at room temperature. A commercial ATP detection assay, Perkin Elmer's easyLite ATP detection reagent, was then added to measure the relative amount of ATP present in the reaction. After 10 minute incubation, the luminescent signal was quantitated with either the Perkin Elmer Viewlux or Molecular Devices Acquest or Analyst.

Compound | IC50
COc1ccc2c(Nc3c(Cl)cncc3Cl)cc(=O)oc2c1O[C@@H]1O[C@H](CO)[C@@H](O)[C@H](O)[C@H]1O [Example 77, 4-(3,5-Dichloropyridin-4-ylamino)-7-methoxy-8-((2S,3R,4S,5S,6R)-3,4,5-trihydroxy-6-(hydroxymethyl)tetrahydro-2H-pyran-2-yloxy)-2H-chromen-2-one] | > 1000 nM
CNP(=O)(NC)OCCCCCOc1c(OC)ccc2c(Nc3c(Cl)cncc3Cl)cc(=O)oc12 [Example 105] | < 1000 nM
COc1ccc2c(Nc3c(Cl)cncc3Cl)cc(=O)oc2c1OCCCCCC(=O)N[C@@H](C)C(=O)O [Example 97, (S)-2-(6-(4-(3,5-Dichloropyridin-4-ylamino)-7-methoxy-2-oxo-2H-chromen-8-yloxy)hexanamido)propanoic acid] | < 1000 nM
COc1ccc2c(Nc3c(Cl)cncc3Cl)c(O)c(=O)oc2c1OC1CCCC1 [Example 4, 8-(Cyclopentyloxy)-4-(3,5-dichloropyridin-4-ylamino)-3-hydroxy-7-methoxy-2H-chromen-2-one] | > 1000 nM
COc1ccc2c(Nc3c(Cl)cncc3Cl)cc(=O)oc2c1OCCCCCO[C@@H]1O[C@H](COC(C)=O)[C@@H](OC(C)=O)[C@H](OC(C)=O)[C@H]1OC(C)=O [Example 75, (2R,3R,4S,5R,6R)-2-(Acetoxymethyl)-6-(5-(4-(3,5-dichloropyridin-4-ylamino)-7-methoxy-2-oxo-2H-chromen-8-yloxy)pentyloxy)tetrahydro-2H-pyran-3,4,5-triyl triacetate] | < 1000 nM
CCOC(=O)COc1c(OC)ccc2c(Nc3c(Cl)cncc3Cl)cc(=O)oc12 [Example 46, Ethyl 2-(4-(3,5-dichloropyridin-4-ylamino)-7-methoxy-2-oxo-2H-chromen-8-yloxy)acetate] | < 1000 nM
COc1ccc2c(Nc3c(Cl)cncc3Cl)cc(=O)oc2c1OCCCCCC(=O)O [Example 44, 6-(4-(3,5-Dichloropyridin-4-ylamino)-7-methoxy-2-oxo-2H-chromen-8-yloxy)hexanoic acid] | < 1000 nM
COc1ccc2c(Nc3c(Cl)cncc3Cl)cc(=O)oc2c1OCCCCCn1ccnn1 [Example 98, 8-(5-(1H-1,2,3-Triazol-1-yl)pentyloxy)-4-(3,5-dichloropyridin-4-ylamino)-7-methoxy-2H-chromen-2-one] | < 1000 nM
COc1ccc2c(Nc3c(Cl)cncc3Cl)cc(=O)oc2c1OCCCCCN [Example 68, 8-(5-Aminopentyloxy)-4-(3,5-dichloropyridin-4-ylamino)-7-methoxy-2H-chromen-2-one] | < 1000 nM
COc1ccc2c(NCC(N)=O)cc(=O)oc2c1OC1CCCC1 [Example 9, 2-(8-(Cyclopentyloxy)-7-methoxy-2-oxo-2H-chromen-4-ylamino)acetamide] | > 1000 nM
COc1ccc2c(N[C@H]3CC[C@@H](C(=O)O)CC3)cc(=O)oc2c1OC1CCCC1 [Example 39, cis-4-(8-(Cyclopentyloxy)-7-methoxy-2-oxo-2H-chromen-4-ylamino)cyclohexanecarboxylic acid] | > 1000 nM
COc1ccc2c(Nc3c(Cl)cncc3Cl)cc(=O)oc2c1OCCCc1ccccc1 [Example 48, 4-(3,5-Dichloropyridin-4-ylamino)-7-methoxy-8-(3-phenylpropoxy)-2H-chromen-2-one] | < 1000 nM
COc1ccc2c(Nc3c(Cl)cncc3Cl)cc(=O)oc2c1OCc1ccccc1 [Example 26, 8-(Benzyloxy)-4-(3,5-dichloropyridin-4-ylamino)-7-methoxy-2H-chromen-2-one] | < 1000 nM
COc1ccc2c(Nc3c(Cl)cncc3Cl)cc(=O)oc2c1OCCOCCBr [Example 62, 8-(2-(2-Bromoethoxy)ethoxy)-4-(3,5-dichloropyridin-4-ylamino)-7-methoxy-2H-chromen-2-one] | < 1000 nM
COc1ccc2c(Nc3c(Cl)cncc3Cl)cc(=O)oc2c1OCCCCN(C)C [Example 27, 4-(3,5-Dichloropyridin-4-ylamino)-8-(4-(dimethylamino)butoxy)-7-methoxy-2H-chromen-2-one] | < 1000 nM
CCOC(=O)CCCCOc1c(OC)ccc2c(Nc3c(Cl)cncc3Cl)cc(=O)oc12 [Example 37, Ethyl 5-(4-(3,5-dichloropyridin-4-ylamino)-7-methoxy-2-oxo-2H-chromen-8-yloxy)pentanoate] | < 1000 nM
COc1ccc2c(Nc3c(Cl)cncc3Cl)cc(=O)oc2c1OCCCCCC(=O)NO [Example 84, 6-(4-(3,5-Dichloropyridin-4-ylamino)-7-methoxy-2-oxo-2H-chromen-8-yloxy)-N-hydroxyhexanamide] | < 1000 nM
COc1ccc2c(Nc3c(Cl)cncc3Cl)cc(=O)oc2c1OCCCCCOc1c(OC)ccc2c(Nc3c(Cl)cncc3Cl)cc(=O)oc12 [Example 74, 8,8′-(Pentane-1,5-diylbis(oxy))bis(4-(3,5-dichloropyridin-4-ylamino)-7-methoxy-2H-chromen-2-one)] | < 1000 nM
COc1ccc2c(Nc3c(Cl)cccc3Cl)cc(=O)oc2c1OC1CCCC1 [Example 1, 8-(Cyclopentyloxy)-4-(2,6-dichlorophenylamino)-7-methoxy-2H-chromen-2-one] | < 1000 nM
COc1ccc2c(Nc3c(Cl)cncc3Cl)cc(=O)oc2c1OCCCCCN1CCOCC1 [Example 53, 4-(3,5-Dichloropyridin-4-ylamino)-7-methoxy-8-(5-morpholinopentyloxy)-2H-chromen-2-one] | < 1000 nM

Compound | IC50
COc1ccc2c(Nc3c(Cl)cncc3Cl)cc(=O)oc2c1OCCCCCC#N [Example 57, 6-(4-(3,5-Dichloropyridin-4-ylamino)-7-methoxy-2-oxo-2H-chromen-8-yloxy)hexanenitrile] | < 1000 nM
COc1ccc2c(Nc3c(Cl)cncc3Br)cc(=O)oc2c1OC1CCCC1 [Example 11, 4-(3-Bromo-5-chloropyridin-4-ylamino)-8-(cyclopentyloxy)-7-methoxy-2H-chromen-2-one] | < 1000 nM
COc1ccc2c(Nc3c(Cl)cncc3Cl)cc(=O)oc2c1OCC(N)=O [Example 56, 2-(4-(3,5-Dichloropyridin-4-ylamino)-7-methoxy-2-oxo-2H-chromen-8-yloxy)acetamide] | < 1000 nM
COc1ccc2c(Nc3c(Cl)cncc3Cl)cc(=O)oc2c1OCCCCCN1CCN(C)CC1 [Example 52, 4-(3,5-Dichloropyridin-4-ylamino)-7-methoxy-8-(5-(4-methylpiperazin-1-yl)pentyloxy)-2H-chromen-2-one] | < 1000 nM
COc1ccc2c(Nc3c(Cl)cccc3C(F)(F)F)cc(=O)oc2c1OC1CCCC1 [Example 17, 4-(2-Chloro-6-(trifluoromethyl)phenylamino)-8-(cyclopentyloxy)-7-methoxy-2H-chromen-2-one] | < 1000 nM
COc1ccc2c(Nc3c(Cl)cncc3Cl)cc(=O)oc2c1OCCCCCOP(=O)(O)O [Example 104, 5-(4-(3,5-Dichloropyridin-4-ylamino)-7-methoxy-2-oxo-2H-chromen-8-yloxy)pentyl dihydrogen phosphate] | < 1000 nM
COc1ccc2c(Nc3c(Cl)cncc3Cl)cc(=O)oc2c1OC(C)C [Example 21, 4-(3,5-Dichloropyridin-4-ylamino)-8-isopropoxy-7-methoxy-2H-chromen-2-one] | < 1000 nM
COc1ccc2c(Nc3c(Cl)cncc3Cl)cc(=O)oc2c1OCCCCCCC(=O)O [Example 65, 7-(4-(3,5-Dichloropyridin-4-ylamino)-7-methoxy-2-oxo-2H-chromen-8-yloxy)heptanoic acid] | < 1000 nM
COc1ccc2c(Nc3c(Cl)cncc3Cl)cc(=O)oc2c1OCCCCCCCCN(C)C [Example 81, 4-(3,5-Dichloropyridin-4-ylamino)-8-(8-(dimethylamino)octyloxy)-7-methoxy-2H-chromen-2-one] | < 1000 nM
COc1ccc2c(Nc3c(Cl)cncc3Cl)cc(=O)oc2c1OCCCCCn1cnnn1 [Example 102, 8-(5-(1H-Tetrazol-1-yl)pentyloxy)-4-(3,5-dichloropyridin-4-ylamino)-7-methoxy-2H-chromen-2-one] | < 1000 nM
CCOC(=O)CNc1cc(=O)oc2c(OC3CCCC3)c(OC)ccc12 [Example 8, Ethyl 2-(8-(cyclopentyloxy)-7-methoxy-2-oxo-2H-chromen-4-ylamino)acetate] | > 1000 nM
COc1ccc2c(Nc3c(Cl)cncc3Cl)cc(=O)oc2c1O [Example 29, 4-(3,5-Dichloropyridin-4-ylamino)-8-hydroxy-7-methoxy-2H-chromen-2-one] | < 1000 nM
COC(=O)[C@H](C)NC(=O)CCCCCOc1c(OC)ccc2c(Nc3c(Cl)cncc3Cl)cc(=O)oc12 [Example 95, (S)-Methyl 2-(6-(4-(3,5-dichloropyridin-4-ylamino)-7-methoxy-2-oxo-2H-chromen-8-yloxy)hexanamido)propanoate] | < 1000 nM
COc1ccc2c(Nc3c(Cl)cncc3Cl)cc(=O)oc2c1OCCCCCN(C)CCN(C)C [Example 93, 4-(3,5-Dichloropyridin-4-ylamino)-8-(5-((2-(dimethylamino)ethyl)(methyl)amino)pentyloxy)-7-methoxy-2H-chromen-2-one] | < 1000 nM
CCOC(=O)CNC(=O)CCCCCOc1c(OC)ccc2c(Nc3c(Cl)cncc3Cl)cc(=O)oc12 [Example 94, Ethyl 2-(6-(4-(3,5-dichloropyridin-4-ylamino)-7-methoxy-2-oxo-2H-chromen-8-yloxy)hexanamido)acetate] | < 1000 nM
COc1ccc2c(Nc3c(Cl)cncc3Cl)cc(=O)oc2c1OCCCCCN1CCCCC1 [Example 54, 4-(3,5-Dichloropyridin-4-ylamino)-7-methoxy-8-(5-(piperidin-1-yl)pentyloxy)-2H-chromen-2-one] | < 1000 nM
COc1ccc2c(Nc3c(C)cccc3Cl)cc(=O)oc2c1OC1CCCC1 [Example 18, 4-(2-Chloro-6-methylphenylamino)-8-(cyclopentyloxy)-7-methoxy-2H-chromen-2-one] | < 1000 nM
COc1ccc2c(Nc3c(C)cncc3C)cc(=O)oc2c1OC1CCCC1 [Example 12, 8-(Cyclopentyloxy)-4-(3,5-dimethylpyridin-4-ylamino)-7-methoxy-2H-chromen-2-one] | < 1000 nM
COc1ccc2c(Nc3c(Cl)cncc3Cl)cc(=O)oc2c1OCCCCCCCCC(=O)O [Example 67, 9-(4-(3,5-Dichloropyridin-4-ylamino)-7-methoxy-2-oxo-2H-chromen-8-yloxy)nonanoic acid] | < 1000 nM
